PubChem BioAssay (NCI)
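Tested at 5 concentrations; 48 h exposure; 96-well plates; endpoints linearly interpolated, else capped at highest concentration. GI50: concentration for 50% inhibition of growth. TGI denotes the concentration required for complete inhibition of growth.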

Columns and labels:
Assay in all cases: NCI anticancer screen, dose series, 48 h
786-0 renal = test system: 786-0 renal
A498 renal = test system: A498 renal
A549 NSCLC = test system: A549 NSCLC
ACHN renal = test system: ACHN renal
BT-549 breast = test system: BT-549 breast
CAKI-1 renal = test system: CAKI-1 renal
CCRF-CEM leukemia = test system: CCRF-CEM leukemia
COLO 205 colon = test system: COLO 205 colon
DU-145 prostate = test system: DU-145 prostate
EKVX NSCLC = test system: EKVX NSCLC
HCC-2998 colon = test system: HCC-2998 colon
HCT-116 colon = test system: HCT-116 colon
HCT-15 colon = test system: HCT-15 colon
HL-60(TB) leukemia = test system: HL-60(TB) leukemia
HOP-62 NSCLC = test system: HOP-62 NSCLC
HOP-92 NSCLC = test system: HOP-92 NSCLC
HS 578T breast = test system: HS 578T breast
HT29 colon = test system: HT29 colon
IGROV1 ovarian = test system: IGROV1 ovarian
K-562 leukemia = test system: K-562 leukemia
KM12 colon = test system: KM12 colon
LOX IMVI melanoma = test system: LOX IMVI melanoma
M14 melanoma = test system: M14 melanoma
MALME-3M melanoma = test system: MALME-3M melanoma
MCF7 breast = test system: MCF7 breast
MDA-MB-231 breast = test system: MDA-MB-231 breast
MDA-MB-435 = test system: MDA-MB-435
MOLT-4 leukemia = test system: MOLT-4 leukemia
NCI-H226 lung = test system: NCI-H226 lung

Question: What does the source list for `CC(=O)N1CCN([C@H]2CCC[C@@H](NC(=O)c3cc4c(F)ccc(C)c4[nH]3)C2)CC1`?
Answer: GI50 (786-0 renal): 36.6 µM; TGI (786-0 renal): > 100 µM; GI50 (A498 renal): 14 µM; TGI (A498 renal): > 100 µM; GI50 (A549 NSCLC): 10.8 µM; TGI (A549 NSCLC): > 100 µM; GI50 (ACHN renal): 32.5 µM; TGI (ACHN renal): > 100 µM; GI50 (BT-549 breast): 15.6 µM; TGI (BT-549 breast): > 100 µM; GI50 (CAKI-1 renal): 11.2 µM; TGI (CAKI-1 renal): > 100 µM; GI50 (CCRF-CEM leukemia): 21.6 µM; TGI (CCRF-CEM leukemia): > 100 µM; GI50 (COLO 205 colon): 24.5 µM; TGI (COLO 205 colon): > 100 µM; GI50 (DU-145 prostate): 24.6 µM; TGI (DU-145 prostate): > 100 µM; GI50 (EKVX NSCLC): 10.7 µM; TGI (EKVX NSCLC): > 100 µM; GI50 (HCC-2998 colon): 18.7 µM; TGI (HCC-2998 colon): > 100 µM; GI50 (HCT-116 colon): 27.5 µM; TGI (HCT-116 colon): > 100 µM; GI50 (HCT-15 colon): 19.9 µM; TGI (HCT-15 colon): > 100 µM; GI50 (HL-60(TB) leukemia): 62.5 µM; TGI (HL-60(TB) leukemia): > 100 µM; GI50 (HOP-62 NSCLC): 15.3 µM; TGI (HOP-62 NSCLC): > 100 µM; GI50 (HOP-92 NSCLC): 18.4 µM; TGI (HOP-92 NSCLC): > 100 µM; GI50 (HS 578T breast): 4.66 µM; TGI (HS 578T breast): 47.6 µM; GI50 (HT29 colon): 16.7 µM; TGI (HT29 colon): 71.6 µM; GI50 (IGROV1 ovarian): 4.83 µM; TGI (IGROV1 ovarian): > 100 µM; GI50 (K-562 leukemia): 31.1 µM; TGI (K-562 leukemia): > 100 µM; GI50 (KM12 colon): 44.3 µM; TGI (KM12 colon): > 100 µM; GI50 (LOX IMVI melanoma): 16.4 µM; TGI (LOX IMVI melanoma): > 100 µM; GI50 (M14 melanoma): 15.3 µM; TGI (M14 melanoma): 34.3 µM; GI50 (MALME-3M melanoma): 10.1 µM; TGI (MALME-3M melanoma): 29.8 µM; GI50 (MCF7 breast): 13.5 µM; TGI (MCF7 breast): > 100 µM; GI50 (MDA-MB-231 breast): 22.3 µM; TGI (MDA-MB-231 breast): > 100 µM; GI50 (MDA-MB-435): 24.6 µM; TGI (MDA-MB-435): > 100 µM; GI50 (MOLT-4 leukemia): 19.4 µM; TGI (MOLT-4 leukemia): > 100 µM; GI50 (NCI-H226 lung): 16.9 µM
